What was measured:
[1] = solubility in the IPA/water mixed solvent (FIG. 4); format: physicochemical; conditions: IPA/water mixed solvent having an IPA concentration of 80 wt %
Description: The solubility of a compound as a constituent material for each layer in the IPA/water mixed solvent varies depending on the weight ratio of IPA in the mixed solvent. FIG. 4 is a graph illustrating the solubilities of the compound 1 (condensed polycyclic hydrocarbon compound) and the compound A2 (heterocyclic compound) in the IPA/water mixed solvent (polar solvent). Here, in the graph of FIG. 4, the axis of abscissa indicates the weight percent concentration of IPA in the IPA/water mixed solvent, and the axis of ordinate indicates the amount of the condensed polycyclic hydrocarbon compound or heterocyclic compound to dissolve in 1 g of the solvent.

[2] = etching rate (dissolution rate) of a deposited layer in the IPA/water mixed solvent; format: physicochemical; conditions: IPA 60 wt %; for etching rate: layer of the compound, polar solvent: IPA/water mixed solvent
Description: In the present invention, a larger etching rate means a higher dissolution rate. In addition, a larger etching rate means a higher solubility of a layer having a material of interest in the solvent (polar solvent).
FIG. 3 is a graph illustrating thickness changes in the compound 1 and the compound A2 over an etching time. Here, FIG. 3 illustrates the results of the etching of the respective layers when a mixed solvent obtained by mixing isopropyl alcohol (IPA) and water so that IPA may account for 60 wt % (hereinafter, sometimes referred to as “IPA/water mixed solvent”) is used as a polar solvent.
On the other hand, the thickness of a layer (layer B) formed of the compound A2 as a heterocyclic compound reduces over time. When the etching rates of the respective layers are calculated with their etching conditions made identical to each other, the etching rate of the layer A is 0.008 nm/sec but the etching rate of the layer B is 0.87 nm/sec, that is, a ratio of the latter to the former is about 100.
Here, a ratio (n) between the etching rates of the uppermost layer (layer A) of the organic compound layer and the lowermost layer (layer B) of the release layer by the polar solvent used upon removal of the release layer under the same temperature conditions can be represented like the following equation.
Next, the photosensitive resin layer 41 was removed by performing dry etching with oxygen as a reactant gas under the conditions of a flow rate of 20 sccm, a pressure of 8 Pa, and an output of 150 W (FIG. 2L). Next, the release layer 30 was removed with a mixed solvent obtained by mixing water and IPA so that an IPA concentration was 60 wt % (FIG. 2M). It should be noted that as the etching rate of the compound (phenanthroline derivative represented by the formula (2)) constituting the release layer 30 in this example was 0.9 nm/sec, the release layer 30 was removed through immersion in the mixed solvent for 600 seconds. Next, vacuum heating was performed at 80° C. so that the solvent remaining on the organic compound layer was removed. It should be noted that the etching rate of the compound represented by the formula (1) serving as the uppermost layer of the organic compound layer placed in each sub-pixel for the polar solvent used for removing the release layer is about 0.0045 nm/sec, which is sufficiently small as compared with the etching rate of the release layer 30.

| SMILES | etching rate [2] [nm/s] | further results |
| --- | --- | --- |
| CC1(C)c2cc(-c3ccc4ccc5cccc6ccc3c4c56)ccc2-c2ccc(-c3ccc4ccc5cccc6ccc3c4c56)cc21 [compound 1] | 0.008 | amount to dissolve in 1 g of the solvent [1]: 5 µg; etching rate ([2]; listed as formula (1)): about 0.0045 nm/sec |
| c1ccc(-c2cc(-c3ccccc3)cc(-c3cccc(-c4cccc(-c5ccc6c7ccccc7c7ccccc7c6c5)c4)c3)c2)cc1 [compound B1] | 1.3 | – |
| O=S(=O)(Oc1ccc2cc(-c3ccc4ccccc4c3)ccc2c1)C(F)(F)F [compound D6] | 2.5 | – |
| CC(C)(C)c1cc2ccc3ccc(B4OC(C)(C)C(C)(C)O4)c4ccc(c1)c2c34 [compound D8] | 3.0 | – |

Further lines, with some results ahead:

| etching rate [2] [nm/s] | SMILES | further results |
| --- | --- | --- |
| 0.87 | CC1(C)c2ccccc2-c2ccc(-c3ccc4ccc5ccc(-c6ccc7c(c6)C(C)(C)c6ccccc6-7)nc5c4n3)cc21 [compound A2] | amount to dissolve in 1 g of the solvent [1]: 73 µg; etching rate ratio (n) of layer B (release layer) to layer A (uppermost organic compound layer) ([2]; compound A2 layer versus compound 1 layer, IPA/water mixed solvent, identical etching conditions): about 100; etching rate ([2]; listed as formula (2)): 0.9 nm/s |
| 1.6 | c1ccc(-n2c(-c3cc(-c4nc5ccccc5n4-c4ccccc4)cc(-c4nc5ccccc5n4-c4ccccc4)c3)nc3ccccc32)cc1 [compound A7] | – |
| 1.5 | O=C1c2ccccc2OC2C=CC(c3cccc(-c4cccc(-c5cc(-c6cccc(-c7ccccc7)c6)cc(-c6cccc(-c7ccccc7)c6)c5)c4)c3)=CC12 (stereo not drawn) [compound Cl] | – |

Source: patent publication US20120274239A1, “METHOD OF MANUFACTURING ORGANIC ELECTROLUMINESCENCE DISPLAY DEVICE AND ELECTRONIC EQUIPMENT INCLUDING ORGANIC ELECTROLUMINESCENCE DISPLAY DEVICE MANUFACTURED BY THE MANUFACTURING METHOD” (CANON KABUSHIKI KAISHA, priority 2011, published 2012)
